Assay results reported in PMC6792352, “Limited Chemical Structural Diversity Found to Modulate Thyroid Hormone Receptor in the Tox21 Chemical Library” (Environmental Health Perspectives, 2019).
Where a name gives a salt, the structure may show the parent alone.

Assay: in vitro
Settings: rat, gh3-tre-luc cells

## CO[Si](CCCn1c(=O)n(CCC[Si](OC)(OC)OC)c(=O)n(CCC[Si](OC)(OC)OC)c1=O)(OC)OC [1,3,5-Tris[3-(trimethoxysilyl)propyl]-1,3,5-triazinane-2,4,6-trione]
AC50 (uM) modified / 1000
  CC50 at 24 h: > 70 µM

## N#CCCCC(C#N)CCC#N (stereo not drawn) [1,3,6-Hexanetricarbonitrile]
AC50 (uM) modified / 1000
  CC50 at 24 h: > 90 µM

## Nc1cccc(N)c1 [1,3-Benzenediamine dihydrochloride]
AC50 (uM) modified / 1000
  CC50 at 24 h: > 90 µM

## N#Cc1cccc(C#N)c1 [1,3-Benzenedicarbonitrile]
AC50 (uM) modified / 1000
  CC50 at 24 h: > 90 µM

## O=C(Cl)c1cccc(C(=O)Cl)c1 [1,3-Benzenedicarbonyl dichloride]
AC50 (uM) modified / 1000
  CC50 at 24 h: > 90 µM

## NNC(=O)c1cccc(C(=O)NN)c1 [1,3-Benzenedicarboxylic acid, dihydrazide]
AC50 (uM) modified / 1000
  CC50 at 24 h: > 90 µM

## O=C(O)c1cccc(C(=O)O)c1 [1,3-Benzenedicarboxylic acid]
AC50 (uM) modified / 1000
  CC50 at 24 h: > 90 µM

## NCc1cccc(CN)c1 [1,3-Benzenedimethanamine]
AC50 (uM) modified / 1000
  CC50 at 24 h: > 90 µM

## CC(C)(N=C=O)c1cccc(C(C)(C)N=C=O)c1 [1,3-Bis(2-isocyanato-2-propyl)benzene]
AC50 (uM) modified / 1000
  CC50 at 24 h: 78.6 µM

## Cc1ccccc1NC(=N)Nc1ccccc1C [1,3-Bis(2-methylphenyl)guanidine]
AC50 (uM) modified / 1000
  CC50 at 24 h: > 90 µM

## O=C(O)c1ccc(OCCCOc2ccc(C(=O)O)cc2)cc1 [1,3-Bis(4-carboxyphenoxy)propane]
AC50 (uM) modified / 1000
  CC50 at 24 h: > 50 µM

## O=C=NCC1CCCC(CN=C=O)C1 (stereo not drawn) [1,3-Bis(isocyanatomethyl)cyclohexane]
AC50 (uM) modified / 1000
  CC50 at 24 h: > 90 µM

## C[C@H](O)CCO [1,3-Butanediol]
AC50 (uM) modified / 1000
  CC50 at 24 h: > 90 µM

## C=C(C)C(=O)OCCC(C)OC(=O)C(=C)C (stereo not drawn) [1,3-Butyleneglycol dimethacrylate]
AC50 (uM) modified / 1000
  CC50 at 24 h: > 90 µM

## NCC1CCCC(CN)C1 (stereo not drawn) [1,3-Cyclohexanedimethanamine]
AC50 (uM) modified / 1000
  CC50 at 24 h: > 90 µM

## O=C1CCCC(=O)C1 [1,3-Cyclohexanedione]
AC50 (uM) modified / 1000
  CC50 at 24 h: > 90 µM

## CC1(C)C(=O)N(Br)C(=O)N1Br [1,3-Dibromo-5,5-dimethylhydantoin]
AC50 (uM) modified / 1000
  CC50 at 24 h: > 90 µM

## BrCCCBr [1,3-Dibromopropane]
AC50 (uM) modified / 1000, Tox21_110001=Tox21_202716, viability, 1 nM T3 present, 24 h
  CC50 at 24 h: > 100 µM

## CC(Cl)=CCCl [1,3-Dichloro-2-butene]
AC50 (uM) modified / 1000
  CC50 at 24 h: > 90 µM

## OC(CCl)CCl [1,3-Dichloro-2-propanol]
AC50 (uM) modified / 1000
  CC50 at 24 h: > 90 µM

## CC1(C)C(=O)N(Cl)C(=O)N1Cl [1,3-Dichloro-5,5-dimethylhydantoin]
AC50 (uM) modified / 1000
  CC50 at 24 h: > 90 µM

## Clc1cccc(Cl)c1 [1,3-Dichlorobenzene]
AC50 (uM) modified / 1000
  CC50 at 24 h: > 90 µM

## ClCCCCl [1,3-Dichloropropane]
AC50 (uM) modified / 1000, Tox21_110001=Tox21_201140, viability, 1 nM T3 present, 24 h
  CC50 at 24 h: > 100 µM

## O=C(CCl)CCl [1,3-Dichloropropanone]
AC50 (uM) modified / 1000, Tox21_110001=Tox21_201433, viability, 1 nM T3 present, 24 h
  CC50 at 24 h: 32.6 µM
AC50 (uM) modified / 1000, Tox21_110001=Tox21_302809, viability, 1 nM T3 present, 24 h
  CC50 at 24 h: 27.3 µM

## Cl/C=C/CCl [1,3-Dichloropropene]
AC50 (uM) modified / 1000, Tox21_110001=Tox21_200235, viability, 1 nM T3 present, 24 h
  CC50 at 24 h: > 90 µM

## CCCCCCCCCCn1cc[n+](CCCCCCCCCC)c1C [1,3-Didecyl-2-methylimidazolium chloride]
AC50 (uM) modified / 1000
  CC50 at 24 h: 6.21 µM

## N=C1N=C(N)c2cc3ccccc3cc21 [1,3-Diiminobenz(f)isoindoline]
AC50 (uM) modified / 1000
  CC50 at 24 h: 39.2 µM

## C=C(C)c1cccc(C(=C)C)c1 [1,3-Diisopropenylbenzene]
AC50 (uM) modified / 1000
  CC50 at 24 h: > 90 µM

## CC(C)c1cccc(C(C)C)c1 [1,3-Diisopropylbenzene]
AC50 (uM) modified / 1000
  CC50 at 24 h: > 90 µM

## COc1cccc(OC)c1 [1,3-Dimethoxybenzene]
AC50 (uM) modified / 1000
  CC50 at 24 h: > 90 µM

## Cc1ccc([N+](=O)[O-])c(C)c1 [1,3-Dimethyl-4-nitrobenzene]
AC50 (uM) modified / 1000
  CC50 at 24 h: > 90 µM

## Cc1cc(C)cc([N+](=O)[O-])c1 [1,3-Dimethyl-5-nitrobenzene]
AC50 (uM) modified / 1000
  CC50 at 24 h: > 90 µM

## CC(C)CC(C)N (stereo not drawn) [1,3-Dimethylbutylamine]
AC50 (uM) modified / 1000, Tox21_110001=Tox21_201157, viability, 1 nM T3 present, 24 h
  CC50 at 24 h: > 90 µM

## O=[N+]([O-])c1cc([N+](=O)[O-])c2ccccc2c1 [1,3-Dinitronaphthalene]
AC50 (uM) modified / 1000, Tox21_110001=Tox21_400056, viability, 1 nM T3 present, 24 h
  CC50 at 24 h: > 90 µM

## OCC1(CO)COCOC1 [1,3-Dioxane-5,5-diyldimethanol]
AC50 (uM) modified / 1000
  CC50 at 24 h: > 90 µM

## O=C1OCCO1 [1,3-Dioxolan-2-one]
AC50 (uM) modified / 1000
  CC50 at 24 h: > 100 µM

## C1COCO1 [1,3-Dioxolane]
AC50 (uM) modified / 1000
  CC50 at 24 h: > 90 µM

## O=C(CC(=O)c1ccccc1)c1ccccc1 [1,3-Diphenyl-1,3-propanedione]
AC50 (uM) modified / 1000
  CC50 at 24 h: > 100 µM

## N=C(Nc1ccccc1)Nc1ccccc1 [1,3-Diphenylguanidine]
AC50 (uM) modified / 1000
  CC50 at 24 h: > 50 µM

## CC(C)NC(=O)NC(C)C [1,3-Dipropan-2-ylurea]
AC50 (uM) modified / 1000
  CC50 at 24 h: > 90 µM

## O=S1(=O)CCCO1 [1,3-Propane sultone]
AC50 (uM) modified / 1000
  CC50 at 24 h: > 90 µM

## OCCCO [1,3-Propanediol]
AC50 (uM) modified / 1000
  CC50 at 24 h: > 200 µM

## C1COC1 [1,3-Propylene oxide]
AC50 (uM) modified / 1000
  CC50 at 24 h: > 90 µM

## Clc1cc(Cl)c2c(c1)N=C1CCCCCN1C2 [1,3-dichloro-6,7,8,9,10,12-hexahydroazepino[2,1-b]quinazoline hydrochloride (1:1)]
AC50 (uM) modified / 1000
  CC50 at 24 h: > 50 µM

## Oc1ccc(O)c2c(O)cccc12 [1,4,5-Trihydroxynaphthalene]
AC50 (uM) modified / 1000
  CC50 at 24 h: > 90 µM

## O=C(Cl)c1ccc(C(=O)Cl)cc1 [1,4-Benzenedicarbonyl dichloride]
AC50 (uM) modified / 1000
  CC50 at 24 h: > 90 µM

## COC(=O)c1ccc(C(=O)O)cc1 [1,4-Benzenedicarboxylic acid, monomethyl ester]
AC50 (uM) modified / 1000
  CC50 at 24 h: > 90 µM

## O=C1C=CC(=O)C=C1 [1,4-Benzoquinone]
AC50 (uM) modified / 1000
  CC50 at 24 h: > 90 µM

## CC(C)(O)c1ccc(C(C)(C)O)cc1 [1,4-Bis(2-hydroxy-2-propyl)benzene]
AC50 (uM) modified / 1000
  CC50 at 24 h: > 90 µM

## OCCOCC#CCOCCO [1,4-Bis(2-hydroxyethoxy)-2-butyne]
AC50 (uM) modified / 1000
  CC50 at 24 h: > 90 µM

## CC(C)Nc1ccc(NC(C)C)c2c1C(=O)c1ccccc1C2=O [1,4-Bis(N-isopropylamino)anthraquinone]
AC50 (uM) modified / 1000
  CC50 at 24 h: > 50 µM

## COCc1ccc(COC)cc1 [1,4-Bis(methoxymethyl)benzene]
AC50 (uM) modified / 1000
  CC50 at 24 h: > 90 µM

## ClC(Cl)(Cl)c1ccc(C(Cl)(Cl)Cl)cc1 [1,4-Bis(trichloromethyl)benzene]
AC50 (uM) modified / 1000
  CC50 at 24 h: > 90 µM

## Clc1cnc(Oc2ccc(Oc3ncc(Cl)cc3Cl)cc2)c(Cl)c1 [1,4-Bis[2-(3,5-dichloropyridyloxy)]benzene]
AC50 (uM) modified / 1000
  CC50 at 24 h: > 60 µM

## C=COCC1CCC(COC=C)CC1 (stereo not drawn) [1,4-Bis[(ethenyloxy)methyl]cyclohexane]
AC50 (uM) modified / 1000
  CC50 at 24 h: > 90 µM

## C=CC(=O)OCCCCOC(=O)C=C [1,4-Butanediol diacrylate]
AC50 (uM) modified / 1000
  CC50 at 24 h: 17.5 µM

## C(CCOCC1CO1)COCC1CO1 (stereo not drawn) [1,4-Butanediol diglycidyl ether]
AC50 (uM) modified / 1000
  CC50 at 24 h: > 90 µM

## OCCCCO [1,4-Butanediol]
AC50 (uM) modified / 1000, Tox21_110001=Tox21_202245, viability, 1 nM T3 present, 24 h
  CC50 at 24 h: > 90 µM

## O=C(O)C1CCC(C(=O)O)CC1 (stereo not drawn) [1,4-Cyclohexanedicarboxylic acid]
AC50 (uM) modified / 1000
  CC50 at 24 h: > 90 µM

## OCC1CCC(CO)CC1 (stereo not drawn) [1,4-Cyclohexanedimethanol]
AC50 (uM) modified / 1000
  CC50 at 24 h: > 90 µM

## Nc1ccc(N)c2c1C(=O)c1ccccc1C2=O [1,4-Diaminoanthraquinone]
AC50 (uM) modified / 1000
  CC50 at 24 h: 55.3 µM

## C1CN2CCN1CC2 [1,4-Diazabicyclo[2.2.2]octane]
AC50 (uM) modified / 1000
  CC50 at 24 h: > 100 µM

## Brc1ccc(Br)cc1 [1,4-Dibromobenzene]
AC50 (uM) modified / 1000, Tox21_110001=Tox21_201288, viability, 1 nM T3 present, 24 h
  CC50 at 24 h: > 90 µM

## BrCCCCBr [1,4-Dibromobutane]
AC50 (uM) modified / 1000, Tox21_110001=Tox21_301070, viability, 1 nM T3 present, 24 h
  CC50 at 24 h: > 90 µM

## Cc1cc(Cl)c(C)cc1Cl [1,4-Dichloro-2,5-dimethylbenzene]
AC50 (uM) modified / 1000
  CC50 at 24 h: > 90 µM

## ClCC=CCCl [1,4-Dichloro-2-butene]
AC50 (uM) modified / 1000
  CC50 at 24 h: > 90 µM

## Clc1ccc(Cl)cc1 [1,4-Dichlorobenzene]
AC50 (uM) modified / 1000, Tox21_110001=Tox21_111293, viability, 1 nM T3 present, 24 h
  CC50 at 24 h: > 50 µM
AC50 (uM) modified / 1000, Tox21_110001=Tox21_200399, viability, 1 nM T3 present, 24 h
  CC50 at 24 h: > 90 µM

## Clc1nnc(Cl)c2ccccc12 [1,4-Dichlorophthalazine]
AC50 (uM) modified / 1000
  CC50 at 24 h: > 90 µM

## CCc1ccc(CC)cc1 [1,4-Diethylbenzene]
AC50 (uM) modified / 1000
  CC50 at 24 h: > 90 µM

## O=C(O)c1cc(O)c2ccccc2c1O [1,4-Dihydroxy-2-naphthoic acid]
AC50 (uM) modified / 1000
  CC50 at 24 h: 12.2 µM
